According to patent US10316057B2, “Tandem facial amphiphiles” (WISCONSIN ALUMNI RESEARCH FOUNDATION, priority 2011, dated 2019):

What was measured:
[1] = target: T1, Bacteriorhodopsin (bR) (Halobacterium salinarum, UniProt P02945); assay: Stabilization assay for bacteriorhodopsin (absorbance at 554 nm); details: room temperature, 20 days; 0.2 wt % OTG+0.8 wt % TFA or 1.0 wt % OTG only
T1 construct: extract bR from the native purple membrane; endogenous in cells
T1 sequence (P02945 14-261 limits assumed): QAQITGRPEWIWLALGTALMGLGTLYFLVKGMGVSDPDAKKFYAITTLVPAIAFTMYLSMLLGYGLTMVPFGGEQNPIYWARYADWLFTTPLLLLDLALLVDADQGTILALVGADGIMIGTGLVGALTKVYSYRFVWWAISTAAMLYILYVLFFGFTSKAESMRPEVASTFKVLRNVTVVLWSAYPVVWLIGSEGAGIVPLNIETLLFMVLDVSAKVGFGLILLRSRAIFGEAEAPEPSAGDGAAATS
Description: Bacteriorhodopsin (bR) has been widely employed for assessment of new amphiphiles because this membrane protein is readily available, and stability can be assessed via spectrophotometry (absorbance at 554 nm). Following standard protocols (Bazzacco et al., Biomacromolecules 2009, 10, 3317-3326), 2.0 wt % octyl-β-D-thioglucoside (OTG) was used to extract bR from the native purple membrane. After removal of insoluble debris via ultracentrifugation, the bR solution was diluted with amphiphile-containing solutions to generate samples containing 0.2 wt % OTG+0.8 wt % TFA. A control sample had OTG added to give a total of 1.0 wt %. […] Parallel studies were carried out at different amphiphile concentrations as described in Example 3 below. DDM is not efficient at bR extraction from the native membrane but extracted bR can be stable in the presence of DDM (Milder et al., Biochemistry 1991, 30, 1751-1761).
The general procedure was followed according to the reported protocol of Bazzacco et al. (Biomacromolecules 10, 3317-3326 (2009)). Frozen aliquots of purple membranes containing bR at 184 μM were thawed and solubilized by incubation with octylthioglucoside (OTG) for 24 hr at 4° C. in a dark room. For the solubilization, OTG (CMC=0.28 wt %) was used at 2.0 wt % in 10 mM sodium phosphate (pH 6.9). […] BR stability in each TFA solutions was monitored by measuring absorbance at 554 nm for 20 days.

[2] = stated in the bR protocol; cited from earlier work
[3] = tested on: T2, LHI-RC superassembly; assay: Stabilization assay for R. capsulatus superassembly (A875/A680); set-up: species or system Rhodobacter capsulatus; details: room temperature, 20 days, CMC+0.04 wt %, relative to DDM
T2 construct: The LHI-RC superassembly was extracted from native membranes with 1.0 wt % DDM; made in house; host or cells: Rhodobacter capsulatus U43[pUHTM86Bgl]; (lacks LHII), photosynthetic membranes
Text: The promising results with bR stabilization led to investigating a more challenging system, the photosynthetic superassembly formed by the light harvesting I (LHI) and reaction center (RC) complexes from Rhodobacter capsulatus (Laible et al., Biochemistry 2003, 42, 1718-1730). This superassembly contains 30-40 protein molecules (five different components), and maintenance of native quaternary structure can be assessed via spectrophotometry. The LHI-RC superassembly was extracted from native membranes with 1.0 wt % DDM and purified with DDM at its CMC (0.009 wt %). […]
Resin-retaining spin columns (e.g., emptied His SpinTrap™ columns; GE Healthcare) were inserted into a 2 mL microcentrifuge tube and the samples were then loaded onto the column. […] The protein was collected by eluting with two 0.25 mL elution buffer aliquots (this buffer was identical to binding buffer with the addition to 1 M of imidazole; the pH of each solution was checked and readjusted to pH=7.8). […]
UV-Vis spectra of these solutions were measured in regular intervals. FIG. 9 illustrates the time course of stability of R. capsulatus superassembly, evaluated at room temperature. […] Absorbance ratio (A875/A680) was followed for the stability evaluation of the membrane protein. […] FIG. 10 illustrates the absorbance spectrum of R. capsulatus superassembly in TFA-1 (a,c) and DDM (b,d) at room temperature (˜23° C.). […]

Structure (SMILES) | bR stability over time [1] | CMC [2] [wt %] | stability of LHI-RC superassembly [3]
CCCCCCCCS[C@@H]1O[C@H](CO)[C@@H](O)[C@H](O)[C@H]1O [OTG, octyl-β-D-thioglucoside, reference compound] | almost completely denatured by day 10 | 0.28 | –
CCCCCCCCCCCC[N+](C)(C)[O-] [lauryldimethylamine oxide] | – | – | rapid degradation of the superassembly
CCCCCCCCO[C@@H]1O[C@H](CO)[C@@H](O)[C@H](O)[C@H]1O [octyl-glucoside] | – | – | rapid degradation of the superassembly
